Laboratory results published in patent US20050182129A1, “Hair growth tonic” (priority 2002, published 2005).

Legend:
Type in all cases: cell-based
[1] = system: WNT-5A mRNA; assay: Activity of decreasing WNT-5A mRNA amount (QuantiGene bDNA method), Test Example 4; conditions: human dermal papilla cells; for IC50: concentration at which the mRNA amount is halved, average of 2 wells
Method: (§1) Human dermal papilla cells, which were purchased from Toyobo, were cultured in MEM (Invitrogen) containing 12% FBS.
(§2) The dermal papilla cells in passage 5 were sowed in a 96-well plate to give a density of 1×10^4 cells/well and cultured overnight. Then, the medium was replaced by a medium to which no compound was added or a medium containing the compounds and the culture was continued for additional 24 hours. After the completion of the culture, WNT-5A or GAPDH mRNA amount was measured by using QuantiGene High Volume Kit (Bayer Medical) by the branched DNA (bDNA) signal amplification method (Drug Metabolism and Disposition, 28(5), 608-616 (2000)). In accordance with the protocol attached to QuantiGene High Volume Kit, cells were lysed by using Lysis Mixture and the lysis solution was added to capture plate. Next, a set of probes specific to WNT-5A or GPDH was added and allowed to react at 53° C. for 20 hours. After washing the plate by using 0.1×SSC containing 0.03% lauryl sulfate, an amplification probe comprising bDNA was added and allowed to react at 46° C. for 1 hour. After washing the plate, a labeling probe labeled with alkaline phosphatase was added and allowed to react at 46° C. for 1 hour. After washing the plate, a substrate Lumi-Phos Plus was added and allowed to react at 46° C. for 30 minutes. Then, the luminescence was measured by using WALLAC 1420ARVOsx.
The WNT-5A-specific probe set was designed based on the sequence of the coding region of human WNT-5A mRNA. As capture extenders (CEs), 10 probes (SEQ ID NOs:12 to 21) were used; as label extenders (LEs), 31 probes (SEQ ID NOs:22 to 52) were employed; and as blockers, […] (SEQ ID NOs:53 to 60) were employed.
(§3) The amounts of WNT-5A and GAPDH mRNAs are expressed in relative values (%) to the control case of adding of no compound and the concentration of a compound at which the mRNA amount is halved (IC50) is calculated as an index of WNT-5A mRNA decreasing activity of the corresponding compound.

[2] = system: GAPDH mRNA; assay: GAPDH mRNA amount (QuantiGene bDNA method), Test Example 4; conditions: Human dermal papilla cell; human dermal papilla cells, 24 hours, concentration at which the mRNA amount is halved, average of 2 wells
Method: as §1, §2
As GAPDH-specific probe set, use was made of bDNA probe set for human GAPDH (XenoTech LLC, B0960).
as §3

[3] = system: Human dermal papilla cells; assay: Dermal papilla cell growth promoting activity (WST-1, spheroid culture), Test Example 5; conditions: for activity at 1 µM / activity at 4 µM / activity at 16 µM: Homo sapiens, Human dermal papilla cell, 72 hours, average of 3 wells, read-out: ΔO.D. 450 nm/620 nm (% of control); for growth promoting activity on dermal papilla cells: at 1 μM; for growth of dermal papilla cells: no concentration stated
Method: as §1
The dermal papilla cells in passage 5 were sowed in a 96-well plate for spheroid culture to give a density of 1.5×10^4 cells/well and cultured overnight. Then, the medium was replaced by a medium to which no compound was added or a medium containing the compound and the culture was continued for additional 72 hours. After the completion of the culture, cells were counted by using a Cell Counting Kit (Wako Pure Chemicals). Five hours before the completion of the culture, WST-1 reagent at 1/10 amount per medium was added to each medium and then the optical density (O.D. 450 nm/620 nm) of the medium was measured at the completion of the culture. A positive correlation was observed between the cell number and optical density within the range of 0.25 to 4×10^4 cells/well.
In this table, each numerical value means an average of 6 wells (control group) or 3 wells (test groups). To compare the control group to the test groups, Student's t-test was employed: • *:P<0.05, **:P<0.01, ***:P<0.001.

[4] = Homo sapiens, Human dermal papilla cell, 24 h

Compound | WNT-5A mRNA amount / expression in dermal papilla cells [1] | IC50 [2] | activity at 1 µM [3] | activity at 4 µM [3] | activity at 16 µM [3] | growth promoting activity on dermal papilla cells [3] | growth of dermal papilla cells [3] | IC50 [1, 4] | IC50 ([1]; 24 hours) | IC50 ([1]; Human dermal papilla cell, 24 hours)
C[C@@H]1C[C@@H]2O[C@H]2/C=C\C=C\C(=O)Cc2c(Cl)c(OCC(=O)Sc3ccccc3)cc(OCC(=O)Sc3ccccc3)c2C(=O)O1 [Compound 52] | effectively inhibit | 13.5 µM | 124.5 ± 1% | 143 ± 9.5% | 197 ± 5.4% | significant growth promoting activity | promote the growth |  |  | 
C[C@@H]1C[C@@H]2O[C@H]2/C=C\C=C\C(=O)Cc2c(Cl)c(OC(=O)c3cccnc3)cc(OC(=O)c3cccnc3)c2C(=O)O1 [Compound 58] | effectively inhibit | 80 µM | 123 ± 1.8% | 150 ± 9.4% | 217 ± 14.5% | significant growth promoting activity | promote the growth | < 1 µM | 0.5 µM | 
CC1C/C=C/C(O)C/C=C/C(=O)Cc2c(Cl)c(O)cc(O)c2C(=O)O1 (stereo not shown) [Compound 65] |  | 109 µM | 92.1 ± 6.7% | 87.6 ± 8.7% | 141 ± 5.3% |  |  | 8.28 µM |  | 
CC1C/C=C/C(O)C/C=C/C(=O)Cc2cc(O)cc(O)c2C(=O)O1 (stereo not shown) [Compound 68] |  | 50.6 µM |  |  |  |  |  | 10.7 µM |  | 
C[C@@H]1C[C@@H]2O[C@H]2CCCCC(=O)Cc2c(Cl)c(O)cc(O)c2C(=O)O1 [Compound 4] |  | > 30 µM | 97.4 ± 24.4% | 148 ± 4.9% | 180 ± 6.9% |  |  | 3.46 µM |  | 
CC(=O)S[C@@H]1/C=C/CC(=O)Cc2c(Cl)c(O)cc(O)c2C(=O)O[C@H](C)C[C@@H]2O[C@H]21 [Compound 54] |  | > 30 µM | 80 ± 2.4% | 97.1 ± 5.6% | 135 ± 0.9% |  |  | 2.37 µM |  | 
CC(=O)S[C@@H]1/C=C\CC(=O)Cc2c(Cl)c(O)cc(O)c2C(=O)O[C@H](C)C[C@@H]2O[C@H]21 [Compound 55] |  | > 30 µM | 89 ± 1.8% | 127 ± 7.2% | 176 ± 9.8% |  |  | 0.74 µM |  | 
CC(=O)Oc1cc(OC(C)=O)c2c(c1Cl)CC(=O)/C=C/C=C\[C@@H]1O[C@H]1C[C@@H](C)OC2=O [Compound 2] |  | 26.4 µM | 143 ± 10.1% | 167 ± 8.5% | 241 ± 25.3% | significant growth promoting activity |  |  |  | 
C[C@@H]1C[C@@H]2O[C@H]2[C@H](Sc2ccccc2)/C=C/CC(=O)Cc2c(Cl)c(O)cc(O)c2C(=O)O1 [Compound 53] | effectively inhibit | 45.5 µM | 127 ± 14.3% | 150 ± 12.8% | 184 ± 3.6% | significant growth promoting activity | promote the growth |  |  | 
C[C@@H]1C[C@H](OC=O)[C@@H](Cl)/C=C\C=C\C(=O)Cc2c(Cl)c(O)cc(O)c2C(=O)O1 [Compound 18] |  | 6.58 µM | 116 ± 9% | 147 ± 11.3% | 211 ± 25.9% | significant growth promoting activity |  | < 1 µM | 0.63 µM | 
C[C@@H]1C[C@@H]2O[C@H]2/C=C\C=C\C(=O)Cc2c(Cl)c(O)cc(O)c2C(=O)O1 [Compound 1, Radicicol] |  | 28.2 µM | 133 ± 11.6% | 184 ± 12.1% | 145 ± 13% | significant growth promoting activity |  |  |  | 
O=C1c2no[n+]([O-])c2CCC1NO (stereo not shown) [Compound 24] |  | 21.1 µM | 108 ± 6.9% | 104 ± 10.5% | 120 ± 3.7% |  | excellent effect of promoting the growth |  |  | 4.74 µM
C[C@@H]1C[C@@H]2O[C@H]2/C=C\C=C\C(=O)Cc2c(Cl)c(OC3OC(CO)C(O)C3O)cc(O)c2C(=O)O1 (stereo partly shown) [Compound 76] |  | 55.9 µM | 80 ± 5.6% | 77.1 ± 7% | 121 ± 6.3% |  |  | 8.56 µM |  | 
CC1CC2OC2CC2=CC=C(Cc3c(Cl)c(O)cc(O)c3C(=O)O1)O2 (stereo not shown) [Compound 77] | effectively inhibit | > 120 µM | 81.6 ± 4.4% | 86.3 ± 5% | 181 ± 21.7% |  | promote the growth | 8.13 µM |  | 
C[C@@H]1C[C@@H]2O[C@H]2/C=C\C=C\C(=NO)Cc2c(Cl)c(O)cc(O)c2C(=O)O1 [Compound 35] |  | 4.29 µM | 161 ± 3.5% | 182 ± 3.7% | 159 ± 18.3% | significant growth promoting activity |  |  |  | 
CC1CC2OC2CC(O)CCC(=O)Cc2c(Cl)c(O)cc(O)c2C(=O)O1 (stereo not shown) [Compound 73] |  | > 120 µM | 91.7 ± 5.7% | 81.2 ± 7.8% | 206 ± 9.2% |  |  | 9.37 µM |  | 
C[C@@H]1C[C@@H]2O[C@H]2/C=C\C=C\[C@H](O)Cc2c(Cl)c(O)cc(O)c2C(=O)O1 [Compound 5] |  | > 30 µM | 110 ± 45% | 175 ± 29.2% | 236 ± 26.4% |  |  | 3.47 µM |  | 
COc1cc(O)c2c(c1)/C=C/CC(O)C(O)C(=O)/C=C\CC(C)OC2=O (stereo not shown) [Compound 79] |  | 38.2 µM | 87.5 ± 9.9% | 98.6 ± 3.6% | 120 ± 4.1% |  | excellent effect of promoting the growth | 0.9 µM |  | 
C[C@@H]1CC2OC2C/C=C\C[C@H](O)Cc2c(Cl)c(O)cc(O)c2C(=O)O1 (stereo partly shown) [Compound 38] |  | > 120 µM | 104 ± 2.6% | 89.6 ± 7.3% | 125 ± 5.1% |  |  | 6.42 µM |  | 
